Reference: the supplement of paper PMC8149375
Blank lines part the entries; values can stand above or below the molecule they belong to.

Experiments:
Conditions in all cases: treatment: drug + dasatinib (fixed dose, not stated); 5 days
769-P [1] = test: minimum viability across doses, drug + dasatinib, relative to DMSO (fraction); higher = less growth inhibition
Experimental: (§1)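 Primary HTS combination arm: 8 RCC cell lines treated with 8 doses (up to 10 uM) of each library drug plus a fixed dose of dasatinib (dose not stated) for 5 days; viability read by CellTiter-Glo and normalised to DMSO. GI50 was fitted with XLfit, AUC is the area under the dose-response curve, and minimum viability is the lowest fraction of DMSO viability across doses.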

TK-10 [2] = test: as above
Experimental: as §1

CAKI-1 [3] = test: as above
Experimental: as §1

786-O [4] = test: as above
Experimental: as §1

UO-31 [5] = test: as above
Experimental: as §1

A498 [6] = test: as above
Experimental: as §1

SN12C [7] = test: as above
Experimental: as §1

ACHN [8] = test: as above
Experimental: as §1

769-P [9] = test: AUC of dose-response viability curve, drug + dasatinib, normalised to DMSO (arbitrary (AUC of normalised viability)); higher = less growth inhibition
Experimental: as §1

TK-10 [10] = test: as above
Experimental: as §1

CAKI-1 [11] = test: as above
Experimental: as §1

786-O [12] = test: as above
Experimental: as §1

UO-31 [13] = test: as above
Experimental: as §1

A498 [14] = test: as above
Experimental: as §1

SN12C [15] = test: as above
Experimental: as §1

ACHN [16] = test: as above
Experimental: as §1

769-P [17] = test: GI50 of drug in presence of dasatinib; higher = less potent
Experimental: as §1

TK-10 [18] = test: as above
Experimental: as §1

CAKI-1 [19] = test: as above
Experimental: as §1

786-O [20] = test: as above
Experimental: as §1

UO-31 [21] = test: as above
Experimental: as §1

A498 [22] = test: as above
Experimental: as §1

SN12C [23] = test: as above
Experimental: as §1

ACHN [24] = test: as above
Experimental: as §1

SMILES: O=C(NC1CCNCC1)c1n[nH]cc1NC(=O)c1c(Cl)cccc1Cl [AT7519] + Cc1nc(Nc2ncc(C(=O)Nc3c(C)cccc3Cl)s2)cc(N2CCN(CCO)CC2)n1 [dasatinib]
minimum viability across doses (769-P [1]): 0.0219
minimum viability across doses (TK-10 [2]): 0.179
minimum viability across doses (CAKI-1 [3]): 0.0385
minimum viability across doses (786-O [4]): 0.00538
minimum viability across doses (UO-31 [5]): 0.00867
minimum viability across doses (A498 [6]): 0.00778
minimum viability across doses (SN12C [7]): 0.00559
minimum viability across doses (ACHN [8]): 0.00318
AUC of dose-response viability curve (769-P [9]): 2.02
AUC of dose-response viability curve (TK-10 [10]): 2.09
AUC of dose-response viability curve (CAKI-1 [11]): 1.64
AUC of dose-response viability curve (786-O [12]): 1.52
AUC of dose-response viability curve (UO-31 [13]): 2.79
AUC of dose-response viability curve (A498 [14]): 2.2
AUC of dose-response viability curve (SN12C [15]): 1.59
AUC of dose-response viability curve (ACHN [16]): 1.44
GI50 of drug (769-P [17]): 1130 nM
GI50 of drug (TK-10 [18]): 610 nM
GI50 of drug (CAKI-1 [19]): 347 nM
GI50 of drug (786-O [20]): 218 nM
GI50 of drug (UO-31 [21]): 864 nM
GI50 of drug (A498 [22]): 337 nM
GI50 of drug (SN12C [23]): 435 nM
GI50 of drug (ACHN [24]): 271 nM

SMILES: Clc1ccc(C2(c3ccc(-c4cn[nH]c4)cc3)CCNCC2)cc1 [AT7867] + Cc1nc(Nc2ncc(C(=O)Nc3c(C)cccc3Cl)s2)cc(N2CCN(CCO)CC2)n1 [dasatinib]
minimum viability across doses (769-P [1]): 0.124
minimum viability across doses (TK-10 [2]): 0.0469
minimum viability across doses (CAKI-1 [3]): 0.094
minimum viability across doses (786-O [4]): 0.00775
minimum viability across doses (UO-31 [5]): 0.00689
minimum viability across doses (A498 [6]): 0.135
minimum viability across doses (SN12C [7]): 0.192
minimum viability across doses (ACHN [8]): 0.0726
AUC of dose-response viability curve (769-P [9]): 2.16
AUC of dose-response viability curve (TK-10 [10]): 2.49
AUC of dose-response viability curve (CAKI-1 [11]): 1.96
AUC of dose-response viability curve (786-O [12]): 1.85
AUC of dose-response viability curve (UO-31 [13]): 2.34
AUC of dose-response viability curve (A498 [14]): 3.22
AUC of dose-response viability curve (SN12C [15]): 2.43
AUC of dose-response viability curve (ACHN [16]): 1.69
GI50 of drug (769-P [17]): 1690 nM
GI50 of drug (TK-10 [18]): 1970 nM
GI50 of drug (CAKI-1 [19]): 762 nM
GI50 of drug (786-O [20]): 577 nM
GI50 of drug (UO-31 [21]): 348 nM
GI50 of drug (A498 [22]): 8310 nM
GI50 of drug (SN12C [23]): 3460 nM
GI50 of drug (ACHN [24]): 530 nM

SMILES: Cc1ccc(NC(=O)c2cccc(C(C)(C)C#N)c2)cc1Nc1ccc2ncn(C)c(=O)c2c1 [AZ628] + Cc1nc(Nc2ncc(C(=O)Nc3c(C)cccc3Cl)s2)cc(N2CCN(CCO)CC2)n1 [dasatinib]
minimum viability across doses (769-P [1]): 0.214
minimum viability across doses (TK-10 [2]): 0.311
minimum viability across doses (CAKI-1 [3]): 0.0806
minimum viability across doses (786-O [4]): 0.593
minimum viability across doses (UO-31 [5]): 0.0219
minimum viability across doses (A498 [6]): 0.409
minimum viability across doses (SN12C [7]): 0.348
minimum viability across doses (ACHN [8]): 0.174
AUC of dose-response viability curve (769-P [9]): 2.33
AUC of dose-response viability curve (TK-10 [10]): 2.25
AUC of dose-response viability curve (CAKI-1 [11]): 2.08
AUC of dose-response viability curve (786-O [12]): 2.36
AUC of dose-response viability curve (UO-31 [13]): 2.95
AUC of dose-response viability curve (A498 [14]): 3.02
AUC of dose-response viability curve (SN12C [15]): 2.33
AUC of dose-response viability curve (ACHN [16]): 1.59
GI50 of drug (769-P [17]): 2470 nM
GI50 of drug (TK-10 [18]): 1600 nM
GI50 of drug (CAKI-1 [19]): 1120 nM
GI50 of drug (786-O [20]): > 10000 nM
GI50 of drug (UO-31 [21]): 1580 nM
GI50 of drug (A498 [22]): 6100 nM
GI50 of drug (SN12C [23]): > 10000 nM
GI50 of drug (ACHN [24]): 146 nM

SMILES: Cc1cc(Nc2nc(N[C@@H](C)c3ccc(F)cc3)c(C#N)cc2F)n[nH]1 [AZ 960] + Cc1nc(Nc2ncc(C(=O)Nc3c(C)cccc3Cl)s2)cc(N2CCN(CCO)CC2)n1 [dasatinib]
minimum viability across doses (769-P [1]): 0.0281
minimum viability across doses (TK-10 [2]): 0.091
minimum viability across doses (CAKI-1 [3]): 0.00482
minimum viability across doses (786-O [4]): 0.00499
minimum viability across doses (UO-31 [5]): 0.0082
minimum viability across doses (A498 [6]): 0.246
minimum viability across doses (SN12C [7]): 0.127
minimum viability across doses (ACHN [8]): 0.0473
AUC of dose-response viability curve (769-P [9]): 1.77
AUC of dose-response viability curve (TK-10 [10]): 2.17
AUC of dose-response viability curve (CAKI-1 [11]): 1.43
AUC of dose-response viability curve (786-O [12]): 1.41
AUC of dose-response viability curve (UO-31 [13]): 2.11
AUC of dose-response viability curve (A498 [14]): 2.64
AUC of dose-response viability curve (SN12C [15]): 1.91
AUC of dose-response viability curve (ACHN [16]): 1.48
GI50 of drug (769-P [17]): 442 nM
GI50 of drug (TK-10 [18]): 882 nM
GI50 of drug (CAKI-1 [19]): 146 nM
GI50 of drug (786-O [20]): 197 nM
GI50 of drug (UO-31 [21]): 496 nM
GI50 of drug (A498 [22]): 987 nM
GI50 of drug (SN12C [23]): 651 nM
GI50 of drug (ACHN [24]): 123 nM

SMILES: COc1cc(CCc2cc(NC(=O)c3ccc(N4C[C@@H](C)N[C@@H](C)C4)cc3)n[nH]2)cc(OC)c1 [AZD4547] + Cc1nc(Nc2ncc(C(=O)Nc3c(C)cccc3Cl)s2)cc(N2CCN(CCO)CC2)n1 [dasatinib]
minimum viability across doses (769-P [1]): 0.581
minimum viability across doses (TK-10 [2]): 0.314
minimum viability across doses (CAKI-1 [3]): 0.0512
minimum viability across doses (786-O [4]): 0.106
minimum viability across doses (UO-31 [5]): 0.016
minimum viability across doses (A498 [6]): 0.542
minimum viability across doses (SN12C [7]): 0.061
minimum viability across doses (ACHN [8]): 0.14
AUC of dose-response viability curve (769-P [9]): 2.51
AUC of dose-response viability curve (TK-10 [10]): 2.37
AUC of dose-response viability curve (CAKI-1 [11]): 1.25
AUC of dose-response viability curve (786-O [12]): 2.33
AUC of dose-response viability curve (UO-31 [13]): 4.54
AUC of dose-response viability curve (A498 [14]): 3.4
AUC of dose-response viability curve (SN12C [15]): 1.78
AUC of dose-response viability curve (ACHN [16]): 1.72
GI50 of drug (769-P [17]): > 10000 nM
GI50 of drug (TK-10 [18]): 3000 nM
GI50 of drug (CAKI-1 [19]): 34 nM
GI50 of drug (786-O [20]): 3540 nM
GI50 of drug (UO-31 [21]): 4240 nM
GI50 of drug (A498 [22]): > 10000 nM
GI50 of drug (SN12C [23]): 201 nM
GI50 of drug (ACHN [24]): 314 nM

Continued, in another order:

GI50 of drug (786-O [20]): 48.7 nM
GI50 of drug (ACHN [24]): 48.8 nM
SMILES: O=C(Nc1c[nH]nc1-c1nc2cc(CN3CCOCC3)ccc2[nH]1)NC1CC1 [AT9283] + Cc1nc(Nc2ncc(C(=O)Nc3c(C)cccc3Cl)s2)cc(N2CCN(CCO)CC2)n1 [dasatinib]
minimum viability across doses (769-P [1]): 0.0379
minimum viability across doses (TK-10 [2]): 0.0526
minimum viability across doses (CAKI-1 [3]): 0.0645
minimum viability across doses (786-O [4]): 0.00871
minimum viability across doses (UO-31 [5]): 0.0134
minimum viability across doses (A498 [6]): 0.0108
minimum viability across doses (SN12C [7]): 0.00616
minimum viability across doses (ACHN [8]): 0.0114
AUC of dose-response viability curve (769-P [9]): 1.46
AUC of dose-response viability curve (TK-10 [10]): 1.83
AUC of dose-response viability curve (CAKI-1 [11]): 1.67
AUC of dose-response viability curve (786-O [12]): 1.19
AUC of dose-response viability curve (UO-31 [13]): 1.87
AUC of dose-response viability curve (A498 [14]): 2.4
AUC of dose-response viability curve (SN12C [15]): 1.75
AUC of dose-response viability curve (ACHN [16]): 1.18
GI50 of drug (769-P [17]): 128 nM
GI50 of drug (TK-10 [18]): 253 nM
GI50 of drug (CAKI-1 [19]): 134 nM
GI50 of drug (UO-31 [21]): 306 nM
GI50 of drug (A498 [22]): 633 nM
GI50 of drug (SN12C [23]): 672 nM

GI50 of drug (786-O [20]): 44 nM
GI50 of drug (ACHN [24]): 8.2 nM
SMILES: CNC(=O)c1cccc(-c2ccc3c(N4CCOC[C@@H]4C)nc(N4CCOC[C@@H]4C)nc3n2)c1 [AZD2014] + Cc1nc(Nc2ncc(C(=O)Nc3c(C)cccc3Cl)s2)cc(N2CCN(CCO)CC2)n1 [dasatinib]
minimum viability across doses (769-P [1]): 0.0727
minimum viability across doses (TK-10 [2]): 0.0635
minimum viability across doses (CAKI-1 [3]): 0.0331
minimum viability across doses (786-O [4]): 0.0164
minimum viability across doses (UO-31 [5]): 0.00563
minimum viability across doses (A498 [6]): 0.147
minimum viability across doses (SN12C [7]): 0.119
minimum viability across doses (ACHN [8]): 0.0544
AUC of dose-response viability curve (769-P [9]): 1.63
AUC of dose-response viability curve (TK-10 [10]): 1.28
AUC of dose-response viability curve (CAKI-1 [11]): 1.28
AUC of dose-response viability curve (786-O [12]): 1.33
AUC of dose-response viability curve (UO-31 [13]): 2.06
AUC of dose-response viability curve (A498 [14]): 2.2
AUC of dose-response viability curve (SN12C [15]): 1.48
AUC of dose-response viability curve (ACHN [16]): 0.938
GI50 of drug (769-P [17]): 131 nM
GI50 of drug (TK-10 [18]): 64 nM
GI50 of drug (CAKI-1 [19]): 62.1 nM
GI50 of drug (UO-31 [21]): 268 nM
GI50 of drug (A498 [22]): 430 nM
GI50 of drug (SN12C [23]): 88.5 nM
